Reference: article PMC6647725 (Analytical and Bioanalytical Chemistry, 2019)

Tests used:
[1] = Stability in mouse kidney homogenate and its final extract; format: in vitro ADME; details: nominal 50 ng/mL
Method: (§1) After weighing the complete organ, a volume of 3 mL of this solution was added to the liver and small intestine, 2 mL to the kidneys, and 1 mL to the brain and spleen. The tissue/BSA ratio (w/v) of the homogenates were approximately 0.4:1 for the brain and liver, 0.1:1 for the spleen, 0.2:1 for the kidneys, and 0.25:1 for the small intestine. All samples were shaken in the Fast Prep at 6.0 m/s during 60 s. The stability of each analyte was investigated in all the previously mentioned matrices. For plasma (both human and mouse), the stability was determined in triplicate at two concentration levels, QC L and QC H, whereas for mouse tissue homogenates only at QC M (except the brain in one stability condition). For all matrices, the following stability conditions were assessed: short term at room temperature (RT), long term at − 20 °C, and after 3 freeze-thaw (F/T) cycles at − 20 °C/RT. Furthermore, for tissue homogenates, the short-term stability in ice-water, long-term stability at − 70 °C, and F/T stability at − 70 °C/ice-water were also evaluated. Additionally, the stability in the final extract was tested. For this, the QC L and QC H final extracts from the plasma, brain, and spleen and the QC M final extract from the liver, kidney and small intestine were stored at 4–8 °C up to 3 days. Lastly, the stability of the stock solutions at − 20 °C was investigated.

[2] = Tissue distribution in mice after oral administration; format: in vivo, mouse (FVB); details: female FVB mice, 20 mg/kg oral, 24 h
Method: After weighing the complete organ, a volume of 3 mL of this solution was added to the liver and small intestine, 2 mL to the kidneys, and 1 mL to the brain and spleen. The tissue/BSA ratio (w/v) of the homogenates were approximately 0.4:1 for the brain and liver, 0.1:1 for the spleen, 0.2:1 for the kidneys, and 0.25:1 for the small intestine. All samples were shaken in the Fast Prep at 6.0 m/s during 60 s. This method was developed to support pharmacokinetic and tissue distribution studies of the CDK4/6 inhibitors in mice (FVB background). These studies were done separately for each drug. Animal housing and studies were conducted according to institutional guidelines complying with Dutch and European Union legislation (approval number from The Dutch Central Animal Testing Committee: AVD301002016595). […] Approximately 50 μL of blood was collected from the tip of the tail at several time points, except at the last one, when 500–1000 μL of blood was collected by cardiac puncture under isoflurane anesthesia. […] Mice were sacrificed by cervical dislocation and the organs were collected and weighed. Plasma was obtained using sodium heparin as anticoagulant after centrifugation at 9000g, 4 °C, for 6 min. When necessary, 10 μL of mouse plasma was diluted with 40 μL of human plasma. […]

[3] = Stability in human plasma and its final extract (LC-MS/MS); format: in vitro ADME
Method: 50 μL of the sample (either from a preclinical study, calibration standard, or QC) was mixed with 25 μL of IS-working solution, followed by 150 μL of ACN for protein precipitation. Samples were vortex mixed and centrifuged at 23,100g for 10 min at 20 °C. An aliquot of 80 μL of supernatant was diluted with 120 μL of 10 mM ammonium bicarbonate in water:MeOH (1:1 v/v). The final extract was transferred to a glass vial with insert, and 10 μL was injected to the LC-MS/MS system for analysis.
The stability of each analyte was investigated in all the previously mentioned matrices. For plasma (both human and mouse), the stability was determined in triplicate at two concentration levels, QC L and QC H, whereas for mouse tissue homogenates only at QC M (except the brain in one stability condition). For all matrices, the following stability conditions were assessed: short term at room temperature (RT), long term at − 20 °C, and after 3 freeze-thaw (F/T) cycles at − 20 °C/RT. Furthermore, for tissue homogenates, the short-term stability in ice-water, long-term stability at − 70 °C, and F/T stability at − 70 °C/ice-water were also evaluated. Additionally, the stability in the final extract was tested. […] Lastly, the stability of the stock solutions at − 20 °C was investigated.

[4] = Stability in tissue homogenates; format: in vitro ADME, mouse; details: for stability in tissue homogenates (in words): all tissue homogenates and conditions of Table 6
Method: The stability of each analyte was investigated in all the previously mentioned matrices. For plasma (both human and mouse), the stability was determined in triplicate at two concentration levels, QC L and QC H, whereas for mouse tissue homogenates only at QC M (except the brain in one stability condition). For all matrices, the following stability conditions were assessed: short term at room temperature (RT), long term at − 20 °C, and after 3 freeze-thaw (F/T) cycles at − 20 °C/RT. Furthermore, for tissue homogenates, the short-term stability in ice-water, long-term stability at − 70 °C, and F/T stability at − 70 °C/ice-water were also evaluated. Additionally, the stability in the final extract was tested. For this, the QC L and QC H final extracts from the plasma, brain, and spleen and the QC M final extract from the liver, kidney and small intestine were stored at 4–8 °C up to 3 days. Lastly, the stability of the stock solutions at − 20 °C was investigated.

[5] = Stability in mouse brain homogenate and its final extract; format: in vitro ADME
Method: as §1

[6] = final extract (listed under kidney homogenate), 4–8 °C, 2 d
[7] = kidney homogenate, 3 F/T (RT, − 20 °C)
[8] = kidney homogenate, 3 F/T (− 70 °C, ice/water bath)
[9] = kidney homogenate, LT − 20 °C, 1 m
[10] = kidney homogenate, LT − 70 °C, 1 m
[11] = kidney homogenate, ice/water bath, 3 h
[12] = final extract (listed under human plasma), 4–8 °C, 4 d, nominal 5 ng/mL
[13] = human plasma, 3 F/T (− 20 °C/RT), nominal 5 ng/mL
[14] = human plasma, RT, 3 d, nominal 5 ng/mL
[15] = human plasma, − 20 °C, 12 m, nominal 5 ng/mL
[16] = brain homogenate, 3 F/T (RT, − 20 °C), nominal 50 ng/mL
[17] = brain homogenate, 3 F/T (− 70 °C, ice/water bath), nominal 50 ng/mL
[18] = brain homogenate, LT − 20 °C, 1 m, nominal 50 ng/mL
[19] = brain homogenate, LT − 70 °C, 1 m, nominal 50 ng/mL
[20] = brain homogenate, RT, 1 d, nominal 5 ng/mL
[21] = brain homogenate, RT, 1 d, nominal 150 ng/mL
[22] = brain homogenate, ice/water bath, 3 h, nominal 50 ng/mL
[23] = final extract (listed under brain homogenate), 4–8 °C, 3 d, nominal 5 ng/mL
[24] = final extract (listed under brain homogenate), 4–8 °C, 3 d, nominal 150 ng/mL
[25] = final extract (listed under human plasma), 4–8 °C, 4 d, nominal 150 ng/mL
[26] = human plasma, RT, 3 d, nominal 150 ng/mL

| Compound | Mean concentration [1, 6] | Mean concentration [1, 7] | Mean concentration [1, 8] | Mean concentration [1, 9] | Accuracy (% Bias) [1, 10] | Mean concentration [1, 10] | Mean concentration ([1]; kidney homogenate, RT, 3 h) | Mean concentration ([1]; kidney homogenate, RT, 1 d) | Mean concentration [1, 11] | Mean concentration [3, 12] | Mean concentration [3, 13] | Mean concentration [3, 14] | Mean concentration [3, 15] | stability in tissue homogenates (in words) [4] | Mean concentration [5, 16] | Accuracy (% Bias) [5, 17] | Mean concentration [5, 17] | Mean concentration [5, 18] | Accuracy (% Bias) [5, 19] | Mean concentration [5, 19] | also measured |
| --- | --- | --- | --- | --- | --- | --- | --- | --- | --- | --- | --- | --- | --- | --- | --- | --- | --- | --- | --- | --- | --- |
| CN(C)C(=O)c1cc2cnc(Nc3ccc(N4CCNCC4)cn3)nc2n1C1CCCC1 [Ribociclib] | 43.2 ng/mL | 15.7 ng/mL | 49.1 ng/mL | 31.5 ng/mL | 0.5% | 50.2 ng/mL | 43.4 ng/mL | 0.91 ng/mL | 42.7 ng/mL | 4.6 ng/mL | 4.3 ng/mL | 4.6 ng/mL | 4.9 ng/mL | showed instability in tissue homogenates | 48.8 ng/mL | 0.1% | 50.0 ng/mL | 49.1 ng/mL | 4.6% | 52.3 ng/mL | concentration in the brain compared with other tissues [2]: much lower; tissue distribution ([2]; spleen, kidney, liver, small intestine): highly distributed in the spleen and kidney, followed by the liver and small intestine; Mean concentration ([3]; human plasma, 2 F/T (− 20 °C/RT), nominal 5 ng/mL): 4.7 ng/mL; time stable in kidney and spleen homogenates ([4]; room temperature and ice/water bath): at least 3 h; Mean concentration [5, 20]: 4.6 ng/mL; Mean concentration [5, 21]: 129.7 ng/mL; Mean concentration [5, 22]: 49.4 ng/mL; Accuracy (% Bias) [5, 23]: 2.7%; Mean concentration [5, 23]: 5.1 ng/mL; Accuracy (% Bias) [5, 24]: 3.1% |
| CCN1CCN(Cc2ccc(Nc3ncc(F)c(-c4cc(F)c5nc(C)n(C(C)C)c5c4)n3)nc2)CC1 [Abemaciclib] | 48.8 ng/mL | 49.5 ng/mL | 51.8 ng/mL | 49.0 ng/mL | 5.5% | 52.7 ng/mL | 50.9 ng/mL | 43.3 ng/mL | 49.3 ng/mL | 5.2 ng/mL | 4.7 ng/mL | 4.8 ng/mL | 4.8 ng/mL | stable in all matrices at all conditions | 53.4 ng/mL | 2.2% | 51.1 ng/mL | 52.0 ng/mL | 4.3% | 52.1 ng/mL | Accuracy (% Bias) [1, 8]: 3.6%; Accuracy (% Bias) ([1]; kidney homogenate, RT, 3 h): 1.7%; Accuracy (% Bias) [3, 12]: 4.5%; Accuracy (% Bias) [3, 25]: 7.1%; Mean concentration [3, 25]: 160.7 ng/mL; Mean concentration ([3]; human plasma, 3 F/T (− 20 °C/RT), nominal 150 ng/mL): 144.3 ng/mL; Accuracy (% Bias) [3, 26]: 6.2%; Mean concentration [3, 26]: 159.3 ng/mL; Mean concentration ([3]; human plasma, − 20 °C, 12 m, nominal 150 ng/mL): 141.7 ng/mL; Accuracy (% Bias) [5, 16]: 6.9%; Accuracy (% Bias) [5, 18]: 3.9%; Accuracy (% Bias) [5, 20]: 6.2%; Mean concentration [5, 20]: 5.3 ng/mL; Accuracy (% Bias) [5, 21]: 11.3%; Mean concentration [5, 21]: 167 ng/mL; Accuracy (% Bias) [5, 22]: 10.4%; Mean concentration [5, 22]: 55.2 ng/mL; Mean concentration [5, 23]: 4.9 ng/mL; Accuracy (% Bias) [5, 24]: 8.7%; Mean concentration [5, 24]: 163 ng/mL |
